Columns and labels:
Hep 3B2 = experiment: Anti-hepatoma activity against human Hep3B cells assessed as cell growth inhibition by MTT assay; format: functional, cell-based
HepG2 = experiment: Anti-hepatoma activity against human HepG2 cells assessed as cell growth inhibition by MTT assay; format: functional, cell-based

Compound	IC50 (HepG2)	IC50 (Hep 3B2)
C=C(C)C(=O)OCC1=C2[C@@H](O)CC3=C[C@@H](C/C(C)=C/[C@H]2OC1=O)OC3=O	> 20 µM	> 20 µM
C=C(C)C(=O)O[C@H]1CC2=C[C@H](CC(=C)[C@@H](O)[C@H]3OC(=O)C(=C)[C@@H]31)OC2=O	8.59 µM	8.79 µM
C[C@@H]1C(=O)O[C@H]2CC3=C[C@@H](C[C@@](C)(O)/C=C/[C@@H]21)OC3=O	> 20 µM	> 20 µM
C=C(C)C(=O)O[C@H]1CC2=C[C@@H](C[C@@](C)(O)/C=C/[C@@H]1C(=C)C(=O)OC)OC2=O	> 20 µM	> 20 µM
COC[C@@H]1C(=O)O[C@H]2[C@H]1[C@@H](O)CC1=C[C@H](C[C@@]3(C)O[C@@H]23)OC1=O	> 20 µM	> 20 µM

More lines, main results first:

IC50 (HepG2)	Compound	IC50 (Hep 3B2)
2.97 µM	C=C1C(=O)O[C@H]2[C@H]1[C@@H](OC(=O)/C(C)=C\C)CC1=C[C@H](C[C@@]3(C)O[C@@H]23)OC1=O	7.14 µM
8.35 µM	C=C1C(=O)O[C@H]2[C@H]1[C@@H](OC(=O)/C(C)=C\C)CC1=C[C@H](CC(=C)[C@H]2O)OC1=O	8.16 µM
2.55 µM	C=C(C)C(=O)O[C@H]1CC2=C[C@H](C[C@@]3(C)O[C@H]3[C@H]3OC(=O)C(=C)[C@@H]31)OC2=O	4.26 µM

From ChEMBL document CHEMBL4765305, “Elephantopinolide A-P, germacrane-type sesquiterpene lactones from Elephantopus scaber induce apoptosis, autophagy and G2/M phase arrest in hepatocellular carcinoma cells” (Eur J Med Chem, 2020)
